From patent US20240150365A1 (Hotspot Therapeutics, Inc., priority 2022, published 2024)
Where two headings read alike, the source gives them in different places.

Columns and labels:
MALT1 = molecular target: T1, MALT1 (Homo sapiens, UniProt Q9UDY8); experiment: MALT-1 Fluorogenic Peptide Cleavage Assay (MALT1 inhibition assay); assay type: biochemical; details: Avi-tagged FL MALT-1, Ac-LRSR-AMC peptide substrate, 30 min pre-incubation, 90 min reaction
T1 construct: Avi-tagged FL MALT-1 (Pharmaron, stored at −70° C.); Avi tag
T1 sequence (Q9UDY8 1-824): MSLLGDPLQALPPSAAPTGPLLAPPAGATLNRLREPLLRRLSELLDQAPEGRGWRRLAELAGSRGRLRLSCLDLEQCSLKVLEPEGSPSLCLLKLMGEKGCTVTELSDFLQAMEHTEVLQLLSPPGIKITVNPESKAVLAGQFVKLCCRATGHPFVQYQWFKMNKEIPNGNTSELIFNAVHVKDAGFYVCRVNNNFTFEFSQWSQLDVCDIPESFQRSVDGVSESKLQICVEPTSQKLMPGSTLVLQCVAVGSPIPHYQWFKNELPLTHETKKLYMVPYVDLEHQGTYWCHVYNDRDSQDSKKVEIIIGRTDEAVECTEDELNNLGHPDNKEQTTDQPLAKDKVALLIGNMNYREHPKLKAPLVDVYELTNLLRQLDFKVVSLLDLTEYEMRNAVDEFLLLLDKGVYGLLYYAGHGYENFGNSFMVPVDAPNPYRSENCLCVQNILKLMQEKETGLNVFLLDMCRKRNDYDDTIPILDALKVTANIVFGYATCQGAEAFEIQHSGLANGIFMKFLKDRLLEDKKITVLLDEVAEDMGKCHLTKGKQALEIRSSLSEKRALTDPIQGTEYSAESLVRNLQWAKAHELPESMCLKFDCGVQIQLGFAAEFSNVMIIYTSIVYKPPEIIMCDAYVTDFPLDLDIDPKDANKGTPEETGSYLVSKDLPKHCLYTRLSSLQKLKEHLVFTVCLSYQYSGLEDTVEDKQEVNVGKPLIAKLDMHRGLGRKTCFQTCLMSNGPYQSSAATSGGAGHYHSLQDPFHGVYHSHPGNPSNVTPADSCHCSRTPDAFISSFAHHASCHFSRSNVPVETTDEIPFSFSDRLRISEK
Summary of the method: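 Avi-tagged full-length MALT1 pre-incubated 30 min with compound (2% DMSO final), then cleavage of Ac-LRSR-AMC followed over 90 min at room temperature. AMC fluorescence read at 342/441 nm; % inhibition fitted to sigmoidal curves for IC50.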

NF-kB = NF-kB reporter assay in Jurkat cells stimulated with aCD3/aCD28/PMA; assay type: cell-based; details: Homo sapiens, Jurkat, read-out: NF-kB Reporter Assay IC50
Summary of the method: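 Jurkat cells (25,000/well, serum-free RPMI 1640) preincubated 1 hr at 37° C with serially diluted compound, then stimulated with aCD3/aCD28/PMA (final 5 μg/mL, 5 μg/mL, 0.03 μg/mL) for 4 hr. Reporter luminescence read with One-Glo; IC50 derived.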

[1] = Jurkat cells, 1 hr compound incubation, aCD3/aCD28/PMA stimulation 4 hr, One-Glo readout

IC50 (MALT1)	IC50 (NF-kB; [1])	Structure (SMILES)	IC50 (NF-kB)
0.4 to 1 µM	< 0.4 µM	Cn1ncc2cccc(NS(=O)(=O)c3ccc(-n4cc5c(n4)CCCC5)nc3)c21 [Example I-233, N-(1-methyl-1H-indazol-7-yl)-6-(4,5,6,7-tetrahydro-2H-indazol-2-yl)pyridine-3-sulfonamide]	–
< 0.4 µM	0.4 to 1 µM	COc1ncc2cnn(C)c2c1NS(=O)(=O)c1ccc(N2C[C@@](O)(C(F)(F)F)CC2=O)nc1 [Example I-235, (R)-6-(4-hydroxy-2-oxo-4-(trifluoromethyl)pyrrolidin-1-yl)-N-(6-methoxy-1-methyl-1H-pyrazolo[4,3-c]pyridin-7-yl)pyridine-3-sulfonamide]	–
0.4 to 1 µM	> 2.5 µM	COc1ncc2cnn(C)c2c1NS(=O)(=O)c1ccc(N2C[C@](O)(C(F)(F)F)CC2=O)nc1 [Example I-236, (S)-6-(4-hydroxy-2-oxo-4-(trifluoromethyl)pyrrolidin-1-yl)-N-(6-methoxy-1-methyl-1H-pyrazolo[4,3-c]pyridin-7-yl)pyridine-3-sulfonamide]	–
< 0.4 µM	< 0.4 µM	COc1ccc2cnn(C)c2c1NS(=O)(=O)c1ccc(-n2cc(C)[nH]c2=O)nc1 [Example I-237, N-(6-methoxy-1-methyl-1H-indazol-7-yl)-6-(4-methyl-2-oxo-2,3-dihydro-1H-imidazol-1-yl)pyridine-3-sulfonamide]	–
< 0.4 µM	< 0.4 µM	CCOC(=O)c1cnn(-c2ccc(S(=O)(=O)Nc3c(OC)ccc4cnn(C)c34)cn2)c1C [Example I-238, ethyl 1-{5-[(6-methoxy-1-methylindazol-7-yl)sulfamoyl]pyridin-2-yl}-5-methylpyrazole-4-carboxylate]	–
1 to 2.5 µM	> 2.5 µM	COc1ccc2cnn(C)c2c1NS(=O)(=O)c1ccc(-c2nc(C)nn2C)nc1 [Example I-239, 6-(1,3-dimethyl-1H-1,2,4-triazol-5-yl)-N-(6-methoxy-1-methyl-1H-indazol-7-yl)pyridine-3-sulfonamide]	–
< 0.4 µM	< 0.4 µM	COc1ccc2c(F)nn(C)c2c1NS(=O)(=O)c1ccc(-n2cc(Cl)cn2)nc1 [Example I-240, 6-(4-chloro-1H-pyrazol-1-yl)-N-(3-fluoro-6-methoxy-1-methyl-1H-indazol-7-yl)pyridine-3-sulfonamide]	–
0.4 to 1 µM	< 0.4 µM	COc1ccc2cnn(C)c2c1NS(=O)(=O)c1ccc(-n2ncc(CO)c2C)nc1 [Example I-242, 6-[4-(hydroxymethyl)-5-methylpyrazol-1-yl]-N-(6-methoxy-1-methylindazol-7-yl)pyridine-3-sulfonamide]	–
> 2.5 µM	< 0.4 µM	Cn1ncc2cccc(NS(=O)(=O)c3ccc(-n4ncc5c4CCOC5)nc3)c21 [Example I-245, N-(1-methylindazol-7-yl)-6-{4H,6H,7H-pyrano[4,3-c]pyrazol-1-yl}pyridine-3-sulfonamide]	–
> 2.5 µM	< 0.4 µM	CCOC(=O)c1cnn(-c2ccc(S(=O)(=O)Nc3cccc4cnn(C)c34)cn2)c1C [Example I-246, ethyl 5-methyl-1-(5-(N-(1-methyl-1H-indazol-7-yl)sulfamoyl)pyridin-2-yl)-1H-pyrazole-4-carboxylate]	–
> 2.5 µM	< 0.4 µM	Cn1ncc2cccc(NS(=O)(=O)c3ccc(-n4cc5c(n4)CCOC5)nc3)c21 [Example I-247, N-(1-methylindazol-7-yl)-6-{4H,6H,7H-pyrano[4,3-c]pyrazol-2-yl}pyridine-3-sulfonamide]	–
> 2.5 µM	> 2.5 µM	CN[C@@H]1CCCC[C@H]1N(C)c1ccc(S(=O)(=O)Nc2cccc3cnn(C)c23)cn1 [Example I-248, 6-{methyl[(1R,2R)-2-(methylamino)cyclohexyl]amino}-N-(1-methylindazol-7-yl)pyridine-3-sulfonamide]	–
> 2.5 µM	< 0.4 µM	COC1(c2cnn(-c3ccc(S(=O)(=O)Nc4cccc5cnn(C)c45)cn3)c2)CC1 [Example I-251, 6-(4-(1-methoxycyclopropyl)-1H-pyrazol-1-yl)-N-(1-methyl-1H-indazol-7-yl)pyridine-3-sulfonamide]	–
> 2.5 µM	< 0.4 µM	Cc1c(CO)cnn1-c1ccc(S(=O)(=O)Nc2cccc3cnn(C)c23)cn1 [Example I-252, 6-[4-(hydroxymethyl)-5-methylpyrazol-1-yl]-N-(1-methylindazol-7-yl)pyridine-3-sulfonamide]	–
> 2.5 µM	0.4 to 1 µM	Cn1ncc2cccc(NS(=O)(=O)c3ccc(-c4cnn(C5COC5)c4)nc3)c21 [Example I-253, N-(1-methyl-1H-indazol-7-yl)-6-(1-(oxetan-3-yl)-1H-pyrazol-4-yl)pyridine-3-sulfonamide]	–
> 2.5 µM	< 0.4 µM	Cc1nc(-c2ccc(S(=O)(=O)Nc3cccc4cnn(C)c34)cn2)cn1C(F)(F)F [Example I-264, 6-(2-methyl-1-(trifluoromethyl)-1H-imidazol-4-yl)-N-(1-methyl-1H-indazol-7-yl)pyridine-3-sulfonamide]	–
> 2.5 µM	< 0.4 µM	Cn1ncc2cccc(NS(=O)(=O)c3ccc(-c4cnc(C5CC5)s4)nc3)c21 [Example I-265, 6-(2-cyclopropyl-1,3-thiazol-5-yl)-N-(1-methylindazol-7-yl)pyridine-3-sulfonamide]	–
> 2.5 µM	0.4 to 1 µM	Cn1ncc2cccc(NS(=O)(=O)c3ccc(-c4cnc(C(C)(C)O)s4)nc3)c21 [Example I-267, 6-[2-(2-hydroxypropan-2-yl)-1,3-thiazol-5-yl]-N-(1-methylindazol-7-yl)pyridine-3-sulfonamide]	–
> 2.5 µM	< 0.4 µM	Cn1ncc2cccc(NS(=O)(=O)c3ccc(-c4cnn5c4CCC5)nc3)c21 [Example I-269, 6-(5,6-dihydro-4H-pyrrolo[1,2-b]pyrazol-3-yl)-N-(1-methyl-1H-indazol-7-yl)pyridine-3-sulfonamide]	–

Structure (SMILES)	IC50 (MALT1)	IC50 (NF-kB; [1])	IC50 (NF-kB)
Cn1c(-c2ccc(S(=O)(=O)Nc3cccc4cnn(C)c34)cn2)cnc1C(F)(F)F [Example I-234, 6-[3-methyl-2-(trifluoromethyl)imidazol-4-yl]-N-(1-methylindazol-7-yl)pyridine-3-sulfonamide]	> 2.5 µM	–	< 0.4 µM
Cn1ncc2cccc(NS(=O)(=O)c3ccc(-c4cnc(C(F)F)s4)nc3)c21 [Example I-241, 6-(2-(difluoromethyl)thiazol-5-yl)-N-(1-methyl-1H-indazol-7-yl)pyridine-3-sulfonamide]	0.4 to 1 µM	–	< 0.4 µM
COc1ncc(-c2ccc(S(=O)(=O)Nc3cccc4cnn(C)c34)cn2)s1 [Example I-243, 6-(2-methoxythiazol-5-yl)-N-(1-methyl-1H-indazol-7-yl)pyridine-3-sulfonamide]	> 2.5 µM	–	< 0.4 µM
Cn1ncc2cccc(NS(=O)(=O)c3ccc(-c4cnc(N5CCOCC5)s4)nc3)c21 [Example I-244, N-(1-methyl-1H-indazol-7-yl)-6-(2-morpholinothiazol-5-yl)pyridine-3-sulfonamide]	> 2.5 µM	–	< 0.4 µM
COc1ccc2c(F)nn(C)c2c1NS(=O)(=O)c1ccc(-n2cc(C)cn2)nc1 [Example I-249, N-(3-fluoro-6-methoxy-1-methyl-1H-indazol-7-yl)-6-(4-methyl-1H-pyrazol-1-yl)pyridine-3-sulfonamide]	< 0.4 µM	–	0.4 to 1 µM
Cn1ncc2cccc(NS(=O)(=O)c3ccc(-c4cnc(Cl)s4)nc3)c21 [Example I-250, 6-(2-chlorothiazol-5-yl)-N-(1-methyl-1H-indazol-7-yl)pyridine-3-sulfonamide]	1 to 2.5 µM	–	< 0.4 µM
CC(C)c1ncc(-c2ccc(S(=O)(=O)Nc3cccc4cnn(C)c34)cn2)s1 [Example I-266, 6-(2-isopropyl-1,3-thiazol-5-yl)-N-(1-methylindazol-7-yl)pyridine-3-sulfonamide]	> 2.5 µM	–	< 0.4 µM
COC(C)(C)c1ncc(-c2ccc(S(=O)(=O)Nc3cccc4cnn(C)c34)cn2)s1 [Example I-268, 6-(2-(2-methoxypropan-2-yl)thiazol-5-yl)-N-(1-methyl-1H-indazol-7-yl)pyridine-3-sulfonamide]	> 2.5 µM	–	< 0.4 µM
